A short description of series [1]: Metabolic Stability in Human Hepatocytes. It counts as in vitro ADME. Particulars: cryopreserved human hepatocytes, 37° C. The method, then:
A 2.5 uL aliquot of 100 μM test compound was incubated with 247.5 uL of cryopreserved hepatocytes suspended in serum-free incubation medium at 5×10^5 viable cells/mL. The mixture was incubated at 37° C. and shaken at 500 rpm for the designated time points (0.5, 15, 30, 60, 90, or 120 min). At each time point, 25 μL aliquot of incubation mixture was transferred to 125 μL of cold acetonitrile containing internal standard, followed by centrifugation for 30 min at 3,220 g. 100 μL of supernatant was mixed with 100 μL of distilled water for analysis by LC-MS/MS. Peak areas were determined from extracted ion chromatograms and in vitro half-life (t1/2) was determined from the concentration vs time regression slope, in vitro t1/2=0.693/k. Conversion of the in vitro t1/2 (in min) into the in vitro intrinsic clearance (in vitro CLint, in μL/min/10^6 cells) is done using: in vitro CLint=kV/N.

Series [2] in a line: in vivo. It counts as in vivo, mouse. Particulars: 001 (metabolite) in brain after 321 IV 2 mg/kg. The method, then: Total fifteen male mice were used in this study with n=3 mice/time point with sparse sampling study design. Animals were administered through intravenous route with solution formulation of 321 at 2 mg/kg dose.
(§1) The extraction procedure for plasma/brain samples and the spiked plasma/brain calibration standards were identical (PMSF Stabilized Plasma and Brain used for Preparation of calibration standards): A 20 μL of study sample plasma/brain or spiked plasma/brain calibration standard was added to individual pre-labeled micro-centrifuge tubes followed by 200 μL of internal standard prepared in acetonitrile (Rosuvastatin, 50 ng/mL) was added except for blank, where 200 μL of acetonitrile was added. Samples were vortexed for 5 minutes. Samples were centrifuged for 10 minutes at a speed of 4000 rpm at 4° C. Following centrifugation, 200 μL of clear supernatant was transferred in 96 well plates and analyzed using LC-MS/MS.
(§2) Brain samples were diluted (1-part of tissue: 2-part of buffer) and homogenized. The homogenate was submitted for bioanalysis and the concentrations (ng/mL) received were corrected with dilution factor (3×) and the final reported concentrations were represented in ng/g.
The plasma and brain concentration-time data of 321 and 001 were used for the pharmacokinetic analysis.
LLOQ: 321: 1.02 ng/mL for plasma and brain 001: 1.01 ng/mL for plasma and brain

Series [3] can be described thus: in vivo. Particulars: 001 (metabolite) in brain after 323 IV 2 mg/kg. It counts as in vivo, mouse. As for the experimental part:
Total fifteen male mice were used in this study with n=3 mice/time point with sparse sampling study design. Animals were administered through intravenous route with solution formulation of 323 at 2 mg/kg dose.
as §1, with “(Rosuvastatin+Cetrizine,” for “(Rosuvastatin,”
as §2
The plasma and brain concentration-time data of 323 and 001 were used for the pharmacokinetic analysis.
LLOQ: 323: 1.02 ng/mL for plasma and brain 001: 1.01 ng/mL for plasma and brain

A short description of series [4]: Pharmacokinetics of 358, single IV in male C57BL/6 mice. It counts as in vivo, mouse. The method, then: Total fifteen male mice were used in this study with n=3 mice/time point with sparse sampling study design. Animals were administered through intravenous route with solution formulation of 358 at 2 mg/kg dose.
The extraction procedure for plasma/brain samples and the spiked plasma/brain calibration standards were identical (PMSF Stabilized Plasma and Brain used for Preparation of calibration standards):
A 20 μL of study sample plasma/brain or spiked plasma/brain calibration standard was added to individual pre-labeled micro-centrifuge tubes followed by 200 μL of internal standard prepared in acetonitrile (Rosuvastatin+Cetrizine, 50 ng/mL) was added except for blank, where 200 μL of acetonitrile was added. Samples were vortexed for 5 minutes. Samples were centrifuged for 10 minutes at a speed of 4000 rpm at 4° C. Following centrifugation, 200 μL of clear supernatant was transferred in 96 well plates and analyzed using LC-MS/MS.
Note: Brain samples were diluted (1-part of tissue: 2-part of buffer) and homogenized. The homogenate was submitted for bioanalysis and the concentrations (ng/mL) received were corrected with dilution factor (3×) and the final reported concentrations were represented in ng/g.
The plasma and brain concentration-time data of 358 and 001 were used for the pharmacokinetic analysis.
LLOQ: 358: 1.02 ng/mL for plasma and brain 001: 1.01 ng/mL for plasma and brain

For series [5] the following is noted: in vivo; cited from earlier work.
Series [6] in a line: Hydrolysis Assay - Condition 1 (SGF). In kind it is physicochemical. Particulars: SGF with pepsin pH 1.5, 37° C., 0.5 mM. As for the experimental part:
50 μL of compound (10 mM) in DMSO was diluted into 950 μL of Simulated Gastric Fluid (SGF) with pepsin (pH 1.5) to a final concentration of 0.5 mM. The hydrolysis kinetics were conducted at 37° C. and measured by LCMS at a certain time interval.
(§3) The corresponding LCMS chromatogram were recorded and the conversions were calculated by integration of each peak.
(§4) • 1) LCMS spectra were obtained using Agilent 1200G1956A or SHIMADZU LCMS-2020. Standard LCMS conditions were as follows (running time 1.55 minutes): • Acidic condition: Mobile Phase A: 0.0375% TFA in water (v/v). Mobile Phase B: 0.01875% TFA in acetonitrile (v/v); Column: Kinetex EVO C18 30*2.1 mm, 5 μm. • Basic condition: Mobile Phase A: 0.025% NH3·H2O in water (v/v). Mobile Phase B: Acetonitrile; Column: Kinetex EVO C18 2.1×30 mm, 5 μm. • 2) Conversion (%)=peak area 1/(peak area 1+peak area 2)*100%, peak area 1 is the integration of hydrolyzed product, peak area 2 is the integration of starting material.

Series [7] can be described thus: Hydrolysis Assay - Condition 2 (DI Water). Particulars: 25° C., 0.5 mM. In kind it is physicochemical. As for the experimental part:
50 μL of compound (10 mM) in DMSO was diluted into 950 μL of DI water to a final concentration of 0.5 mM. The hydrolysis kinetics were conducted at 25° C. and measured by LCMS at a certain time interval.
as §3, §4

The format of series [8] is in vitro ADME, mouse. Particulars: prodrug remaining, 5 μM, 37° C. As for the experimental part: (§5) Each test was carried out in duplicate for each time point; 0 min, 15 min, 30 min, 60 min, 120, 240 min. […]
The format of series [9] is in vitro ADME, human. Particulars: prodrug remaining, 5 μM, 37° C. The method, then: as §5
The conditions of series [10]: fermentation, exposure to light, exposure to heat, aqueous medium; cited from earlier work.

Consider three molecules from patent publication US20240408119A1, “DELIVERY OF THERAPEUTIC ALKALOID COMPOUNDS” (priority 2022, published 2024).

Each structure is given as a SMILES string. Where two headings read alike, the source gives them in different places.

What is called half-life is the time needed for the level to fall by half in the phase considered. Higher therefore signals slow decline. Broadly, the hepatocyte CLint is a measure of how fast metabolising enzymes remove a compound, apart from limits set by blood flow. A low value points to greater metabolic stability.

`COc1ccc([C@@]23CCC(=O)C[C@@H]2N(C)CC3)cc1OC` (racemic) [Compound 001, (3aS,7aS)-3a-(3,4-dimethoxyphenyl)-1-methyl-2,3,4,5,7,7a-hexahydroindol-6-one, reference compound]: in series [1], the half-life came out at 17 min. Also, the hepatocyte CLint in series [1] is 40 µL/min/1e6 cells. Further, the results for the AUClast in [2], in series [3] and in [4] (001 (metabolite) in brain after 358 IV 2 mg/kg) were 12.72 ng·h/g, 411.95 ng·h/g and 190.88 ng·h/g, respectively. Besides, the half-life in plasma entry in series [5] is listed as “less than 2 hours”.
For the molecule `COc1ccc([C@@]23CCC(OC(=O)OC(C)(C)C)=C[C@@H]2N(C)CC3)cc1OC` [Compound 358, [(3aS,7aS)-3a-(3,4-dimethoxyphenyl)-1-methyl-3,4,5,7a-tetrahydro-2H-indol-6-yl] tert-butyl carbonate], the “Condition 1 Conversion (%)” value in [6] (1 min) came out at 0%; in [6] (5 min), 0%; in series [6] (30 min), 0%; in [6] (1 h), 5%; in series [6] (4 h), 100%; in series [6] (24 h), 100%. The “Condition 2 Conversion (%)” value in series [7] (1 min) was found to be 0%; in series [7] (5 min), 0%; in series [7] (30 min), 0%; in [7] (1 h), 0%; in [7] (4 h), 83.46%; in series [7] (24 h) it was 100%. The “Mouse Plasma Prodrug (%)” value turned out to be 100% in series [8] (0 min); 14.8% in [8] (15 min); 10.3% in [8] (30 min); 5.4% in series [8] (60 min); 0.0% in [8] (120 min); 0.0% in [8] (240 min). The “Human Plasma Prodrug (%)” value in series [9] (0 min) is listed as 100%; in series [9] (15 min), 75.4%; in [9] (30 min), 58.1%; in series [9] (60 min), 35.5%; in series [9] (120 min) it was 11.7%; in series [9] (240 min), 0.7%. In addition, in series [4] (358 after 358 IV 2 mg/kg), the “brain concentrations quantifiable up to” value is on record as no more than 0.08 h. Also, the concentration at 0.08 h worked out at 18.3 ng/g in series [4] (male, C57BL/6, mouse, brain, 358 after 358 IV 2 mg/kg, read-out: Brain concentrations (mean)) and 14.3 ng/mL in [4] (male, C57BL/6, mouse, plasma, 358 after 358 IV 2 mg/kg, read-out: Plasma concentrations (mean)). For the same molecule, the “plasma concentrations quantifiable up to” value in series [4] (male, C57BL/6, mouse, in vivo, iv, 2 mg/kg) was “up to 0.25 h”. The concentration at 0.25 h in series [4] (male, C57BL/6, mouse, plasma, 358 after 358 IV 2 mg/kg, 0.25 h, average of two values, read-out: Plasma concentrations (mean)) was found to be 1.51 ng/mL.
`COc1ccc([C@@]23CCC(=O)C[C@@H]2N(C)CC3)cc1OC` [Mesembrine, 3a-(3,4-dimethoxyphenyl)-octahydro-1-methyl-6H-indol-6-one]: the stability entry in series [10] is given as “unstable”.
